Source: PMC3265452 (PLoS Neglected Tropical Diseases, 2012)
Structures can show the parent of a compound that is named as a salt.

target: AaDOP2 (Aedes aegypti, UniProt H6D5H2); assay: AaDOP2 antagonist screen of the LOPAC1280 library (HEK-CRELuc-Aadop2 cells, luminescence); assay type: cell-based; conditions: not given
Sequence (H6D5H2 1-476): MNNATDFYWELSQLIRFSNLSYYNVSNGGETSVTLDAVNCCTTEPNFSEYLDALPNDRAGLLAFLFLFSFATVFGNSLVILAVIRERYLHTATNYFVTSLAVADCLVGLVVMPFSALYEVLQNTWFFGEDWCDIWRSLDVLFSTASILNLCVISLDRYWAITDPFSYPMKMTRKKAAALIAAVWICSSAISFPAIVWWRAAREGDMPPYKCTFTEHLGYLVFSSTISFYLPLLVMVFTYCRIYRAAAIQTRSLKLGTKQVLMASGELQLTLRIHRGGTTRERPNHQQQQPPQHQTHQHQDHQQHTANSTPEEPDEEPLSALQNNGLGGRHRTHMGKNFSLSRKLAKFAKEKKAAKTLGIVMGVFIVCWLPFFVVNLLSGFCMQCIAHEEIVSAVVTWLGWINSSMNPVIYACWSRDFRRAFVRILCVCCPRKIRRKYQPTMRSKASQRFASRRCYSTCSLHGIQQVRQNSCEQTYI

Going from “2-Methylthioadenosine diphosphate trisodium [Compound 826]” to “2-Methylthioadenosine triphosphate tetrasodium [Compound 120]”, the “Compound effect (percent receptor signaling in presence of test compound, relative lux units relative to the SCH23390 control)” value rises from 92 to 99.

First: 17alpha-hydroxyprogesterone [Compound 593]
Second: CCOC(=O)[C@]12CC1/C(=N\O)c1ccccc1O2 (mixture of isomers) [Compound 318, CPCCOEt]
The “Compound effect (percent receptor signaling in presence of test compound, relative lux units relative to the SCH23390 control)” value of the first is higher: 83 for the first, 58 for the second.

First: CC(N)(Cc1ccc(O)cc1)C(=O)O (racemic) [Compound 1, DL-alpha-Methyl-p-tyrosine]
Second: O=C(O)C1CCCNC1 (racemic) [Compound 5, (±)-Nipecotic acid]
The “Compound effect (percent receptor signaling in presence of test compound, relative lux units relative to the SCH23390 control)” value of the first is lower: 95 for the first, 99 for the second.

First: NC(CCP(=O)(O)O)C(=O)O (racemic) [Compound 31, (±)-2-Amino-4-phosphonobutyric acid]
Second: NC(CP(=O)(O)O)C(=O)O (racemic) [Compound 55, (±)-2-Amino-3-phosphonopropionic acid]
The “Compound effect (percent receptor signaling in presence of test compound, relative lux units relative to the SCH23390 control)” value of the first is higher: 124 for the first, 102 for the second.

Going from `NC(CCCCCP(=O)(O)O)C(=O)O` (racemic) [Compound 57, (±)-2-Amino-7-phosphonoheptanoic acid] to `CCC1(c2ccc(N)cc2)CCC(=O)NC1=O` (racemic) [Compound 109, (±)-p-Aminoglutethimide], the “Compound effect (percent receptor signaling in presence of test compound, relative lux units relative to the SCH23390 control)” value rises from 93 to 106.

Compared with `NC1CCN(O)C1=O` (racemic) [Compound 110, (±)-HA-966], `C=CCN1CC[C@@]2(C)c3cc(O)ccc3C[C@@H]1[C@@H]2C.Cl` (racemic) [Compound 131, (±)-N-Allylnormetazocine hydrochloride] is lower in “Compound effect (percent receptor signaling in presence of test compound, relative lux units relative to the SCH23390 control)” value: 107 for the first, 105 for the second.

Compared with `CCCCS(=N)(=O)CCC(N)C(=O)O` (racemic) [Compound 168, DL-Buthionine-[S,R]-sulfoximine], `COC(=O)C1=C(C)NC(C)=C([N+](=O)[O-])C1c1ccccc1C(F)(F)F` (racemic) [Compound 203, (±)-Bay K 8644] is lower in “Compound effect (percent receptor signaling in presence of test compound, relative lux units relative to the SCH23390 control)” value: 77 for the first, 73 for the second.

Going from `CN(C)CCC(c1ccc(Cl)cc1)c1ccccn1.O=C(O)/C=C\C(=O)O` (racemic) [Compound 243, (±)-Chlorpheniramine maleate] to `O=C(O)C1CN(CCCP(=O)(O)O)CCN1` (racemic) [Compound 329, (±)-CPP], the “Compound effect (percent receptor signaling in presence of test compound, relative lux units relative to the SCH23390 control)” value rises from 77 to 91.

First: Oc1cc2c(cc1O)[C@H]1c3ccccc3CN[C@@H]1CC2 (racemic) [Compound 398, Dihydrexidine hydrochloride]
Second: Cl.Oc1cc2c(cc1O)C(c1ccccc1)CNCC2 (racemic) [Compound 444, (±)-SKF-38393 hydrochloride]
The “Compound effect (percent receptor signaling in presence of test compound, relative lux units relative to the SCH23390 control)” value of the first is higher: 110 for the first, 101 for the second.

Compared with `COc1cc(CC(C)N)c(OC)cc1I.Cl` (racemic) [Compound 447, (±)-DOI hydrochloride], `CC(N)c1cccc(Cl)c1Cl.Cl` (racemic) [Compound 448, (±)-2,3-Dichloro-alpha-methylbenzylamine hydrochloride] is lower in “Compound effect (percent receptor signaling in presence of test compound, relative lux units relative to the SCH23390 control)” value: 86 for the first, 84 for the second.

Compared with `CCCCCCCCCCCCCCCC(=O)NCC(COP(=O)([O-])OCC[N+](C)(C)C)OCC` (racemic) [Compound 488, rac-2-Ethoxy-3-hexadecanamido-1-propylphosphocholine], `CCCCCCCCCCCCCCCCCC(=O)NCC(COP(=O)([O-])OCC[N+](C)(C)C)OCC` (racemic) [Compound 489, rac-2-Ethoxy-3-octadecanamido-1-propylphosphocholine] is higher in “Compound effect (percent receptor signaling in presence of test compound, relative lux units relative to the SCH23390 control)” value: 42 for the first, 65 for the second.

First: COc1cc(C(O)C(=O)O)ccc1O (racemic) [Compound 573, (±)-Vanillylmandelic acid]
Second: NC(Cc1cc(O)c(O)cc1O)C(=O)O (racemic) [Compound 584, 6-Hydroxy-DL-DOPA]
The “Compound effect (percent receptor signaling in presence of test compound, relative lux units relative to the SCH23390 control)” value of the first is higher: 115 for the first, 101 for the second.

Going from `N[C@H](C(=O)O)c1cc(O)no1` (racemic) [Compound 642, (±)-Ibotenic acid] to `CC(C)Cc1ccc(C(C)C(=O)O)cc1` (racemic) [Compound 646, (±)-Ibuprofen], the “Compound effect (percent receptor signaling in presence of test compound, relative lux units relative to the SCH23390 control)” value falls from 105 to 98.

First: COC(=O)C(C)(N)Cc1ccc(O)cc1.Cl (racemic) [Compound 759, alpha-Methyl-DL-tyrosine methyl ester hydrochloride]
Second: COCCc1ccc(OCC(O)CNC(C)C)cc1.COCCc1ccc(OCC(O)CNC(C)C)cc1.O=C(O)C(O)C(O)C(=O)O (racemic) [Compound 777, (±)-Metoprolol (+)-tartrate]
The “Compound effect (percent receptor signaling in presence of test compound, relative lux units relative to the SCH23390 control)” value of the first is higher: 101 for the first, 98 for the second.

same assay, conditions: 10 µM compound, 300 nM dopamine, 2 hr; hit = compound effect <20

Going from `NC[C@H](O)c1ccc(O)c(O)c1.O=C(O)C(O)C(O)C(=O)O` (racemic) [Compound 22, (±)-Norepinephrine (+)bitartrate] to `NC(C(=O)O)C(O)C(=O)O` (racemic) [Compound 585, DL-threo-beta-hydroxyaspartic acid], the “Compound effect (percent receptor signaling in presence of test compound, relative lux units relative to the SCH23390 control)” value rises from 102% to 118%.

Compared with `NC(CCCP(=O)(O)O)C(=O)O` (racemic) [Compound 58, (±)-2-Amino-5-phosphonopentanoic acid], `Br.Cc1o[nH]c(=O)c1CC(N)C(=O)O` (racemic) [Compound 563, (±)-AMPA hydrobromide] is higher in “Compound effect (percent receptor signaling in presence of test compound, relative lux units relative to the SCH23390 control)” value: 89% for the first, 101% for the second.

First: N[C@@]1(C(=O)O)CC[C@@H](C(=O)O)C1 (racemic) [Compound 130, trans-(±)-ACPD]
Second: CC(N)(C(=O)O)c1ccc(C(=O)O)cc1 (racemic) [Compound 771, (±)-alpha-Methyl-4-carboxyphenylglycine]
The “Compound effect (percent receptor signaling in presence of test compound, relative lux units relative to the SCH23390 control)” value of the first is higher: 116% for the first, 108% for the second.

Compared with `CN(C)CCC(c1ccc(Br)cc1)c1ccccn1.O=C(O)/C=C\C(=O)O` (racemic) [Compound 165, (±)-Brompheniramine maleate], `NCC(CC(=O)O)c1ccc(Cl)cc1` (racemic) [Compound 177, (±)-Baclofen] is higher in “Compound effect (percent receptor signaling in presence of test compound, relative lux units relative to the SCH23390 control)” value: 63% for the first, 111% for the second.

Compared with `COC(=O)C(N)Cc1ccc(Cl)cc1.Cl` (racemic) [Compound 248, DL-p-Chlorophenylalanine methyl ester hydrochloride], `NC(Cc1ccc(Cl)cc1)C(=O)O` (racemic) [Compound 285, (±)-p-Chlorophenylalanine] is lower in “Compound effect (percent receptor signaling in presence of test compound, relative lux units relative to the SCH23390 control)” value: 71% for the first, 62% for the second.

Going from `NC1CONC1=O` (racemic) [Compound 291, DL-Cycloserine] to `CC(C)(C)NCC(O)COc1cccc2[nH]c(=O)[nH]c12.Cl` (racemic) [Compound 334, (±)-CGP-12177A hydrochloride], the “Compound effect (percent receptor signaling in presence of test compound, relative lux units relative to the SCH23390 control)” value rises from 94% to 97%.

Going from `Br.C=CCN1CCc2c(cc(O)c(O)c2Cl)C(c2ccccc2)C1` (racemic) [Compound 336, (±)-Chloro-APB hydrobromide] to `Br.CCCN(CCC)C1CCc2cccc(O)c2C1` (racemic) [Compound 602, (±)-8-Hydroxy-DPAT hydrobromide], the “Compound effect (percent receptor signaling in presence of test compound, relative lux units relative to the SCH23390 control)” value rises from 77% to 102%.

Compared with `CCCCCCCCCCCCCCC[C@H](O)[C@H](N)CO` (racemic) [Compound 406, DL-erythro-Dihydrosphingosine], `Cl.NCCCC(N)(C(=O)O)C(F)F` (racemic) [Compound 467, DL-alpha-Difluoromethylornithine hydrochloride] is higher in “Compound effect (percent receptor signaling in presence of test compound, relative lux units relative to the SCH23390 control)” value: 88% for the first, 94% for the second.

Going from `Br.CCCN(CCC)C1CCc2ccc(O)cc2C1` (racemic) [Compound 606, (±)-7-Hydroxy-DPAT hydrobromide] to `COc1ccc(CCN(C)CCCC(C#N)(c2cc(OC)c(OC)c(OC)c2)C(C)C)cc1OC.Cl` (racemic) [Compound 782, (±)-Methoxyverapamil hydrochloride], the “Compound effect (percent receptor signaling in presence of test compound, relative lux units relative to the SCH23390 control)” value rises from 62% to 88%.
